This passage reports Km results from paper PMC7083800, “Production and characterization of Aspergillus niger GH29 family α-fucosidase and production of a novel non-reducing 1-fucosyllactose” (Glycoconjugate Journal, 2019).

This assay relates to T1, A. niger GH29 α-fucosidase (long version, pPFucA-L).
T1 construct: gene FucA; C-terminal His-tag kept; codon-optimized, secreted from Pichia pastoris
Nature of the assay: pNP release, absorbance at […] nm. The format is biochemical, Aspergillus niger. Particulars: 50 mM Na-acetate buffer assay, pH 3.6, 45 °C; 0.05-3 mM substrate; read-out: apparent Km.

`C[C@@H]1O[C@@H](Oc2ccc([N+](=O)[O-])cc2)[C@@H](O)[C@H](O)[C@@H]1O` [pNP-fucose, 4-Nitrophenyl α-L-fucopyranoside]: the Km was determined as 390 µM.
